Calls of active or inactive are those of the source.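 Rule for the calls: active = compounds giving half or more protection of infected cells from virus-caused growth loss, again on retest; inactive = the rest.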 *1 amine or outer side, *2 acyl side, *3 side chain or, on linkers, in order; H or OH if unused. Where a SMILES comes first, the peptide text is derived from it. [ ]: non-standard residue; d: D form. The star is where a group is joined. X3 = CC(=O)N(C)SCC(N[*:1])C(=O)[*:2]; Fmoc = O=C(OCC1c2ccccc2-c2ccccc21)*; Cbz = O=C(OCc1ccccc1)*; OSu = O=C1CCC(=O)N1O*; OBn = c1ccc(CO*)cc1; For = O=C*
System: CEM cells HIV-1 protection, formazan growth assay
Assay: NCI AIDS Antiviral Assay
Details: for IC50: measured here: growth of uninfected CEM cells
Procedure, shortened: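 Screen of anti-HIV-1 activity in human CEM cells using a formazan-based growth measurement at five drug concentrations. Hits with 50% or greater protection were repeated, and confirmation required reproducible complete protection.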

| Structure (SMILES) | EC50 | IC50 | outcome |
| --- | --- | --- | --- |
| O=C1C[C@H]2[C@H](c3ccc(Br)cc3)[C@H]3C(=O)c4ccccc4NC(=O)[C@@H]3[C@@]2(O)c2ccccc2N1 | > 200 µM | 77.6 µM |  |
| CC(=O)OC1CCC2(COS(=O)(=O)c3ccc(C)cc3)C(=CCC3C2CCC2(C)C(C(C)CCCC(C)C)CCC32)C1 (configuration not stated) | > 200 µM | > 200 µM |  |
| CN(C)C1(C(=O)O)CC1 | > 200 µM | > 200 µM |  |
| CCCCCCCC(=O)OCC1OC(n2cc(F)c(=O)[nH]c2=O)C(NC(=O)OCc2ccccc2)C(O)C1O (configuration not stated) | > 64.6 µM | 56.2 µM |  |
| CCN(CC)CC(C)C1NS(=O)(=O)c2ccccc21 (configuration not stated) | > 200 µM | > 200 µM |  |
| O=c1[nH]c2ccccc2c(O)c1/C=N/C(=S)NCCc1ccccc1 | > 200 µM | > 200 µM |  |
| COc1cc2c3c(c1OC)C1(C=CC(=O)C=C1)C[C@H]3N(C)CC2 |  |  | inactive |
| COc1cc2c(cc1O)CC13CCC(=O)N1CCc1cc(OC)c(O)c-2c13 (configuration not stated) |  |  | inactive |
| CCN1CCC(O)(c2ccc(OC)cc2)C(C(=O)c2ccc(OC)cc2)C1 (configuration not stated) | > 550 µM | 14.5 µM |  |
| O=C(NNc1nc2cc(F)ccc2n2cccc12)c1cnccn1 | > 200 µM | 3.47 µM |  |
| C=CCNC(=S)NNC(=O)c1c(C)nc2sccn12 | > 851 µM | 813 µM |  |
| CO/N=C1/c2sccc2[C@H](NC(=O)C(Cc2ccccc2)NC(=O)OC(C)(C)C)[C@@H]1O (some centres not stated) | > 200 µM | > 200 µM |  |
| CC(C)CCC[C@@H](C)[C@H]1CC[C@H]2[C@@H]3CC[C@H]4C[C@@H](NC(=O)CC=C(c5cc(Cl)c(O)c(C(=O)O)c5)c5cc(Cl)c(O)c(C(=O)O)c5)CC[C@]4(C)[C@H]3CC[C@]12C | 24 µM | 170 µM |  |
| CCOC(=O)c1ccc(CSc2ccc([N+](=O)[O-])cc2)cc1 | > 6.31 µM | > 6.31 µM |  |
| O=C1c2ccccc2Sc2ccccc2N1CCCN1CCN(c2ccc(F)cc2)CC1 | > 200 µM | 33.9 µM |  |
| CC(=O)c1ccccc1NS(=O)(=O)c1ccc2nc(C)n(NS(=O)(=O)c3ccccc3C(C)=O)c(=O)c2c1 | > 200 µM | > 200 µM |  |
| COC(=O)CCC1=C(C)c2cc3[n-]c(cc4nc(cc5[n-]c(cc1n2)c(CCC(=O)OC)c5C)C(C(C)=O)=C4C)c(C(C)=O)c3C.[Ni+2] | > 100 µM | > 100 µM |  |
| CCCCOC(=O)C(=O)/C(=C/N1C(=O)/C(=C/C(C)=C/c2ccccc2)SC1=S)C(=O)C=C(C)C | > 100 µM | 14.8 µM |  |
| C1CN2CN1CN1CCN(C1)C2 | > 200 µM | 22.9 µM |  |
| O=c1cc2n(c(=O)[nH]1)C1OC(C(O)C1O)[C@@H]2CCO (some centres not stated) |  |  | inactive |
| CCN(CC)c1cc2oc(=O)cc(C)c2cc1NC(=O)c1cc(N)cc(N)c1 | > 100 µM | 19.5 µM |  |
| N#CCCN(CCC#N)c1ccc(/C=C(/NC(=O)Nc2ccccc2Cl)NC(=O)c2cc([N+](=O)[O-])ccc2Cl)cc1 | > 12.3 µM | 1.91 µM |  |
| CC(NC(=O)C(NC(=O)OCc1ccccc1)C(C)C)C(=O)NCC(=O)ON1C(=O)CCC1=O (stereo not drawn) (Cbz-Val-Ala-Gly-OSu; configuration not given here) | > 100 µM | > 100 µM |  |
| CC(=O)NC(C(=O)N1CCCC1C(=O)OCc1ccccc1)C(C)C (stereo not drawn) (Ac-Val-Pro-OBn; configuration not given here) | > 200 µM | 112 µM |  |
| CN(C)CCCOc1c(Br)cc(CCN(C)C)cc1Br |  |  | inactive |
| Cc1csc2[n+]1C(=O)/C(=C\c1ccc([N+](=O)[O-])cc1)S2 | > 200 µM | 29.5 µM |  |
| CC(=O)N(C)SCC(NC(=O)C(Cc1ccccc1)NC(=O)OCC1c2ccccc2-c2ccccc21)C(=O)NC(Cc1ccccc1)C(=O)NC(Cc1cn(C=O)c2ccccc12)C(=O)NC(CCCCNC(=O)OCC1c2ccccc2-c2ccccc21)C(=O)NC(C(=O)NC(CSN(C)C(C)=O)C(=O)NC(C(N)=O)C(C)O)C(C)O (configuration not stated) (Fmoc-F[X3]FW(For)K(Fmoc)T[X3]T-NH2; configuration not given here) | > 100 µM | 79.4 µM |  |
| O=NC1C(=O)NC(=O)NC1=O | > 200 µM | > 200 µM |  |

Source: PubChem BioAssay AID179 (DTP/NCI, 2004)
